Patent US9272998B1, “Modulation of c-FOS and BDNF protein expression in pentylenetetrazole-kindled mice following the treatment with novel anti-epileptic compound HHL-6” (priority 2015, dated 2016)

Experiments:
c-Fos protein expression = experiment: c-Fos immunohistochemistry of brain sections of PTZ-kindled mice (ImageJ densitometry); assay type: in vivo; conditions: for Fluorescence intensity of c-Fos, Amygdala / Fluorescence intensity of c-Fos, Thalamus / Fluorescence intensity of c-Fos, Hippocampus / Fluorescence intensity of c-Fos, Cortex: PTZ-kindled mice, HHL-6 20 mg/kg, DZP 7.5 mg/kg, mean ± S.E.M.; for Fluorescence intensity of c-Fos, Amygdala: normal control 12.23 ± 2.9, PTZ control 38.17 ± 5.08; for Fluorescence intensity of c-Fos, Thalamus: normal control 12.58 ± 1.79, PTZ control 45.36 ± 3.70; for Fluorescence intensity of c-Fos, Hippocampus: normal control 15.29 ± 2.3, PTZ control 44.27 ± 7.43; for Fluorescence intensity of c-Fos, Cortex: normal control 16.31 ± 1.24, PTZ control 40.69 ± 8.2; for c-Fos staining intensity (FIG. 4B): cortical region, kindled animals, normal control 16.31±1.24, PTZ control 40.69±8.2
Description: (§1) Animals were sacrificed 24 hrs after establishment of complete kindling. Cardiac perfusion with chilled PBS buffer (NaCl—8 g, KCl—0.2 g, Na2HPO4×12 H2O—2.85 g, KH2PO4—0.2 g; pH 7.4) containing heparin was performed. Whole brains were removed, post-fixed in ice-cold 2% PFA for 24 hrs at +4° C. and then placed in 30% sucrose until brain samples sank to the bottom of the container. The samples were stored at −80° C. until further processing.
Frozen brain samples were cut into […] thick sections and directly taken on poly L-lysine coated slides and kept at −20° C. overnight. The cryosections were incubated overnight at 4° C. with primary antibody i.e. purified c-Fos (4): sc-52 for c-Fos detection and BDNF (N-20): sc-546 for BDNF detection independently. This was followed by re-incubation with secondary antibody i.e. biotinylated goat anti-mouse IgG (Alexa Flour) for 1 hour at room temperature in dark. The stained sections were observed under fluorescent microscope (Nikon ECLIPSE TE2000-S, Japan). Since the specificity of the primary antibody is very critical therefore, in order to determine specificity, negative controls were also processed by eliminating the step where sections were incubated with their respective primary antibody.
Expression of c-Fos and BDNF protein observed under the fluorescent microscope was analyzed by using software ImageJ (NIH, USA). The image processing program ImageJ helps in multiple imaging system data comparisons taking density (densitometry) in consideration to analyze the images. For each image, background density was determined and subtracted; the remaining particles were considered to represent c-Fos or BDNF expression. Data were obtained from two sections per mouse (n=12 animals per group) and presented as means±S.E.M. cFos and BDNF immunoreactivity in the amygdala, cortex, dorsal hippocampus, and thalamus were centered approximately around 3.6 mm posterior to bregma. Within the hippocampus region, measurements were performed over the layer extending from sub-regions CA1-CA3.
(§2) Data is presented as mean±standard error of the mean (S.E.M.). The seizure activity was analyzed by nonparametric Mann-Whitney U tests. The immunostaining data was analyzed by one-way ANOVA with post hoc Dunnett's multiple comparison tests. Sequential differences among means were calculated at the level of P<0.05 using the SPSS version 10.

[1] = tested on: scPTZ-induced kindling in mice; experiment: PTZ-induced kindling test (Racine's scale seizure score); assay type: in vivo
Description: (§3) Albino male NMRI mice weighing 20-25 grams were used. The animals were housed under standard laboratory conditions i.e. 12:12 hr light: dark cycle, temperature (21±2° C.) and air humidity controlled environment. Food and water were provided ad libitum. All experiments were carried out in accordance to the International Guidelines for the Use and Care of Laboratory Animals and approved by Scientific Advisory Committee on Animal Care, Use, and Standards of our institute.
Sub-convulsive dose (50 mg/kg) of PTZ was given subcutaneously to all groups (n=12/group) except normal control after every 48 hours. In normal control group, instead of PTZ, saline was used. The drug control groups received daily administration of diazepam (7.5 mg/kg). The test group was treated with the HHL-6 (20 mg/kg) once daily. Racine's scale was used to score the seizure activity such as stage 0: no response; stage 1: ear and facial twitching; stage 2: convulsive wave through the body; stage 3: myoclonic jerks, stage 4: clonic-tonic convulsions, turnover into side position; stage 5: generalized clonic-tonic seizures, loss of postural control. Animals showing score 4 or 5 were considered to be fully kindled.

[2] = HHL-6 20 mg/kg; 30 min and 1 h after injection
Description: This was examined by Traction test. The forepaws of a mouse were placed on a small twisted wire rigidly supported above a bench top. Normal mice grasped the wire with forepaws and when allowed to hang free, placed at least one hind foot on the wire within 5 seconds. Inability to put up at least one hind foot constituted failure to the traction. The test was conducted at 30 min and 1 h after the injection of saline, diazepam or HHL-6.

[3] = tested on: scPTZ-induced seizure in mice; experiment: subcutaneous PTZ-induced seizure test (scPTZ); assay type: in vivo; conditions: for mortality in scPTZ test: 20 mg/kg of HHL-6 or 7.5 mg/kg of diazepam, PTZ-control 100% mortality; for protection against scPTZ induced mortality / Onset of jerks / Rearing & falling: diazepam 7.5 mg/kg; for protection against scPTZ induced mortality: mortality within 24 hours; for Onset of jerks / Rearing & falling: i.p. 30 min before s.c. PTZ 90 mg/kg, mean of 6 mice; for Onset of jerks: PTZ-control 190; for Rearing & falling: PTZ-control 640
Description: as §3
The anticonvulsant effect of HHL-6 using scPTZ test was evaluated by administering 20 mg/kg dose to groups of 6 mice at least 30 min before subcutaneous administration of convulsive dose of PTZ (90 mg/kg). After PTZ administration, animals were isolated and observed for an hour for the presence or absence of different types of seizure patterns. Latency to PTZ-induced threshold seizures was also calculated. The latency to threshold seizure is defined as the interval between the time of the PTZ-injection and the occurrence of first episode of threshold seizure. Protection of testing material against PTZ-induced mortality within 24 hours was also evaluated. In all experiments, diazepam (7.5 mg/kg i.p) was used as positive control.
In Table 3, the HHL-6 and diazepam were injected intraperitoneally 30 min before the administration of subcutaneous pentylenetetrazole (90 mg/kg) in their respective groups. Values are presented as mean for the duration of tonic seizure for 6 mice.

BDNF protein expression = experiment: BDNF immunohistochemistry of brain sections of PTZ-kindled mice (ImageJ densitometry); assay type: in vivo; conditions: cortical region, kindled animals; normal control 29.53±3.9, PTZ control 57.6±13.6
Description: as §1
Frozen brain samples were cut into […] thick sections and directly taken on poly L-lysine coated slides and kept at −20° C. overnight. The cryosections were incubated overnight at 4° C. with primary antibody i.e. purified c-Fos (4): sc-52 for c-Fos detection and BDNF (N-20): sc-546 for BDNF detection independently. […]
Expression of c-Fos and BDNF protein observed under the fluorescent microscope was analyzed by using software ImageJ (NIH, USA). […] For each image, background density was determined and subtracted; the remaining particles were considered to represent c-Fos or BDNF expression. […]
as §2

[4] = observed 1-2 hr after treatment
Text: Animals were transferred into individual cages the day before the experiments to allow them to acclimatize to the new environment. […] For behavioral studies, blind-testing was employed i.e., the experimenter conducting this study was blinded to the given treatment.

[5] = HHL-6 20 mg/kg, PTZ 90 mg/kg s.c.
[6] = PTZ 90 mg/kg s.c., HHL-6 20 mg/kg

Structure (SMILES) | Fluorescence intensity of c-Fos, Amygdala (c-Fos protein expression) [arbitrary unit] | Fluorescence intensity of c-Fos, Thalamus (c-Fos protein expression) [arbitrary unit] | Fluorescence intensity of c-Fos, Hippocampus (c-Fos protein expression) [arbitrary unit] | Fluorescence intensity of c-Fos, Cortex (c-Fos protein expression) [arbitrary unit] | c-Fos staining intensity (FIG. 4B) (c-Fos protein expression) | seizure score (kindling) after treatment day 13 ([1]; HHL-6 20 mg/kg, PTZ 50 mg/kg on alternate days, 18 doses in 36 days) | seizure score (kindling) ([1]; treatment day 9 till 13, HHL-6 20 mg/kg once daily, PTZ 50 mg/kg s.c. every 48 hours, PTZ-kindled control average 4.9) | muscle relaxant activity (traction test) [2] | protection from jerks [3, 5] | protection from tonic fore limb and hind limb seizures [3, 5] [%] | mortality in scPTZ test ([3]; PTZ 90 mg/kg s.c.) | protection against scPTZ induced mortality [3, 6] [%] | Onset of jerks ([3]; HHL-6 20 mg/kg) [s] | Rearing & falling ([3]; HHL-6 20 mg/kg) [s] | BDNF staining intensity (FIG. 5B) (BDNF protein expression) | alteration in normal behavior pattern [4] | hyper-excitability or sedation [4] | seizure pattern till the end of the kindling protocol ([1]; diazepam 7.5 mg/kg daily, PTZ 50 mg/kg s.c. every 48 hours)
CCCCCC(=O)NCCc1c(C(C)=O)[nH]c2c(OC)cccc12 [HHL-6, 2-acetyl-3-(2-hexanoylamidoethyl)-7-methoxyindole] | 15.21 ± 2.3 | 15.58 ± 3.74 | 16.92 ± 2.75 | 18.24 ± 3.2 | 18.24±3.2 | 0 | 0.3 | did not observed muscle relaxant activity | unable to provide protection from jerks | 100 | Mortality was not demonstrated | 100 | 460 | 0 | 26.2±5.4 | did not show any alteration in their normal behavior pattern | not observed | 
CN1C(=O)CN=C(c2ccccc2)c2cc(Cl)ccc21 [diazepam, reference compound] | 14.94 ± 1.99 | 18.33 ± 2.19 | 20.09 ± 3.77 | 17.28 ± 3.6 | 17.28±4.6 |  |  |  |  |  | Mortality was not demonstrated | 100 | 0 | 0 | 31.5±7.6 |  |  | did not exhibit any seizure pattern
